Tested on: 876862-298-R-J1-PDC complex spheroids, viability % test/control
Test: Anticancer human tumor 876862-298-R-J1-PDC patient-derived endometrial carcinoma cell line growth inhibition [CLK]
Details: for IC50: curve of first compound; for viability, T/C: stronger effect = lower value
Outline: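 Multi-cell-type spheroids combined patient-derived tumor cells with HUVEC endothelial cells and human mesenchymal stem cells. Paired agents were dosed in half-log steps down from about clinical Cmax, or from 10 microM where Cmax was unknown.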

[1] = second compound 0.0316 µM, first compound 0.0316 µM
[2] = second compound 0.0316 µM, first compound 0.1 µM
[3] = second compound 0.0316 µM, first compound 0.316 µM
[4] = second compound 0.0316 µM, first compound 1 µM
[5] = second compound 0.0316 µM, first compound 3.16 µM
[6] = second compound 0.0316 µM, first compound 10 µM
[7] = second compound 0.1 µM, first compound 0.0316 µM
[8] = second compound 0.1 µM, first compound 0.1 µM
[9] = second compound 0.1 µM, first compound 0.316 µM
[10] = second compound 0.1 µM, first compound 1 µM
[11] = second compound 0.1 µM, first compound 3.16 µM
[12] = second compound 0.1 µM, first compound 10 µM
[13] = second compound 0.316 µM, first compound 0.0316 µM
[14] = second compound 0.316 µM, first compound 0.1 µM
[15] = second compound 0.316 µM, first compound 0.316 µM
[16] = second compound 0.316 µM, first compound 1 µM
[17] = second compound 0.316 µM, first compound 3.16 µM
[18] = second compound 0.316 µM, first compound 10 µM
[19] = second compound 1 µM, first compound 0.0316 µM
[20] = second compound 1 µM, first compound 0.1 µM
[21] = second compound 1 µM, first compound 0.316 µM
[22] = second compound 1 µM, first compound 1 µM
[23] = second compound 1 µM, first compound 3.16 µM
[24] = second compound 1 µM, first compound 10 µM
[25] = second compound 3.16 µM, first compound 0.0316 µM
[26] = second compound 3.16 µM, first compound 0.1 µM
[27] = second compound 3.16 µM, first compound 0.316 µM
[28] = second compound 3.16 µM, first compound 1 µM
[29] = second compound 3.16 µM, first compound 3.16 µM
[30] = second compound 3.16 µM, first compound 10 µM
[31] = second compound 10 µM, first compound 0.0316 µM
[32] = second compound 10 µM, first compound 0.1 µM
[33] = second compound 10 µM, first compound 0.316 µM
[34] = second compound 10 µM, first compound 1 µM
[35] = second compound 10 µM, first compound 3.16 µM
[36] = second compound 10 µM, first compound 10 µM
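Further: spheroids exposed to drugs for 7 days before readout.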
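Wherever viability, T/C is given: 100% = DMSO vehicle control wells.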

SMILES: CC(=O)O[C@H]1C(=O)[C@@]2(C)[C@H]([C@H](OC(=O)c3ccccc3)[C@]3(O)C[C@H](OC(=O)[C@H](O)[C@@H](NC(=O)c4ccccc4)c4ccccc4)C(C)=C1C3(C)C)[C@]1(OC(C)=O)CO[C@@H]1C[C@@H]2O + CNC(=O)c1ccc(Nc2nc(OC3CCCC3)c3c(-c4ccc5nc(C)oc5c4)c[nH]c3n2)c(OC)c1
- IC50 (second compound 0.0316 µM): < 31.6 nM
- IC50 (second compound 0.1 µM): < 31.6 nM
- IC50 (second compound 0.316 µM): < 31.6 nM
- IC50 (second compound 1 µM): < 31.6 nM
- IC50 (second compound 3.16 µM): < 31.6 nM
- IC50 (second compound 10 µM): < 31.6 nM
- viability, T/C [1]: 32.5%
- viability, T/C [2]: 37.6%
- viability, T/C [3]: 37.8%
- viability, T/C [4]: 36.5%
- viability, T/C [5]: 37.3%
- viability, T/C [6]: 43.6%
- viability, T/C [7]: 51.2%
- viability, T/C [8]: 45.7%
- viability, T/C [9]: 45.6%
- viability, T/C [10]: 42.8%
- viability, T/C [11]: 49.8%
- viability, T/C [12]: 50.9%
- viability, T/C [13]: 41.5%
- viability, T/C [14]: 45.6%
- viability, T/C [15]: 43.8%
- viability, T/C [16]: 41.4%
- viability, T/C [17]: 47.8%
- viability, T/C [18]: 45.9%
- viability, T/C [19]: 32.2%
- viability, T/C [20]: 31%
- viability, T/C [21]: 33.2%
- viability, T/C [22]: 35.4%
- viability, T/C [23]: 36%
- viability, T/C [24]: 40.8%
- viability, T/C [25]: 23.1%
- viability, T/C [26]: 22.9%
- viability, T/C [27]: 24.7%
- viability, T/C [28]: 26.6%
- viability, T/C [29]: 30.4%
- viability, T/C [30]: 33.6%
- viability, T/C [31]: 21.6%
- viability, T/C [32]: 21%
- viability, T/C [33]: 23.4%
- viability, T/C [34]: 26.1%
- viability, T/C [35]: 25.3%
- viability, T/C [36]: 30%

SMILES: CCc1c2c(nc3ccc(O)cc13)-c1cc3c(c(=O)n1C2)COC(=O)[C@]3(O)CC + CNC(=O)c1ccc(Nc2nc(OC3CCCC3)c3c(-c4ccc5nc(C)oc5c4)c[nH]c3n2)c(OC)c1
- IC50 (second compound 0.0316 µM): < 3.16 nM
- IC50 (second compound 0.1 µM): < 3.16 nM
- IC50 (second compound 0.316 µM): < 3.16 nM
- IC50 (second compound 1 µM): < 3.16 nM
- IC50 (second compound 3.16 µM): < 3.16 nM
- IC50 (second compound 10 µM): < 3.16 nM
- viability, T/C (second compound 0.0316 µM, first compound 0.00316 µM): 24%
- viability, T/C (second compound 0.0316 µM, first compound 0.01 µM): 9.43%
- viability, T/C [1]: 8.16%
- viability, T/C [2]: 5.8%
- viability, T/C [3]: 5.07%
- viability, T/C [4]: 3.65%
- viability, T/C (second compound 0.1 µM, first compound 0.00316 µM): 16.5%
- viability, T/C (second compound 0.1 µM, first compound 0.01 µM): 7.94%
- viability, T/C [7]: 7.35%
- viability, T/C [8]: 4.4%
- viability, T/C [9]: 4.15%
- viability, T/C [10]: 3.49%
- viability, T/C (second compound 0.316 µM, first compound 0.00316 µM): 14.8%
- viability, T/C (second compound 0.316 µM, first compound 0.01 µM): 6.28%
- viability, T/C [13]: 5.77%
- viability, T/C [14]: 4.17%
- viability, T/C [15]: 4.42%
- viability, T/C [16]: 3.57%
- viability, T/C (second compound 1 µM, first compound 0.00316 µM): 9.55%
- viability, T/C (second compound 1 µM, first compound 0.01 µM): 5.23%
- viability, T/C [19]: 4.77%
- viability, T/C [20]: 4.25%
- viability, T/C [21]: 3.64%
- viability, T/C [22]: 2.78%
- viability, T/C (second compound 3.16 µM, first compound 0.00316 µM): 7.99%
- viability, T/C (second compound 3.16 µM, first compound 0.01 µM): 5.52%
- viability, T/C [25]: 4.06%
- viability, T/C [26]: 4.3%
- viability, T/C [27]: 3.4%
- viability, T/C [28]: 2.05%
- viability, T/C (second compound 10 µM, first compound 0.00316 µM): 6.88%
- viability, T/C (second compound 10 µM, first compound 0.01 µM): 4.97%
- viability, T/C [31]: 5.13%
- viability, T/C [32]: 4.85%
- viability, T/C [33]: 3.25%
- viability, T/C [34]: 1.96%

SMILES: COc1cccc2c1C(=O)c1c(O)c3c(c(O)c1C2=O)CC(O)(C(=O)CO)CC3OC1CC(N)C(O)C(C)O1 (stereo unspecified) + CNC(=O)c1ccc(Nc2nc(OC3CCCC3)c3c(-c4ccc5nc(C)oc5c4)c[nH]c3n2)c(OC)c1
- IC50 (second compound 0.0316 µM): < 31.6 nM
- IC50 (second compound 0.1 µM): < 31.6 nM
- IC50 (second compound 0.316 µM): < 31.6 nM
- IC50 (second compound 1 µM): < 31.6 nM
- IC50 (second compound 3.16 µM): < 31.6 nM
- IC50 (second compound 10 µM): < 31.6 nM
- viability, T/C [1]: 27.4%
- viability, T/C [2]: 11.2%
- viability, T/C [3]: 6.58%
- viability, T/C [4]: 5.25%
- viability, T/C [5]: 0.7%
- viability, T/C [6]: 4.06%
- viability, T/C [7]: 22.3%
- viability, T/C [8]: 10.5%
- viability, T/C [9]: 6.67%
- viability, T/C [10]: 4.08%
- viability, T/C [11]: 0.67%
- viability, T/C [12]: 3.82%
- viability, T/C [13]: 21.7%
- viability, T/C [14]: 7.88%
- viability, T/C [15]: 5.6%
- viability, T/C [16]: 2.96%
- viability, T/C [17]: 0.81%
- viability, T/C [18]: 4.75%
- viability, T/C [19]: 15.3%
- viability, T/C [20]: 5.96%
- viability, T/C [21]: 4.62%
- viability, T/C [22]: 2.24%
- viability, T/C [23]: 1.51%
- viability, T/C [24]: 5.96%
- viability, T/C [25]: 13%
- viability, T/C [26]: 6.62%
- viability, T/C [27]: 3.35%
- viability, T/C [28]: 1.57%
- viability, T/C [29]: 1.6%
- viability, T/C [30]: 6.55%
- viability, T/C [31]: 12.1%
- viability, T/C [32]: 5.47%
- viability, T/C [33]: 3.35%
- viability, T/C [34]: 1.56%
- viability, T/C [35]: 2.15%
- viability, T/C [36]: 7.11%

— PubChem BioAssay AID2060607 (Molecular Pharmacology Branch, DTP, NCI, 2025)
